Marks after values point to notes of the source that are not given here.
How the values were obtained:
CYP2B1 mRNA = test: Melting temperature (Tm) of ODNs used in Example 1; type: physicochemical, rat
Description: The oligo 2B1-ATG (SEQ ID NO: 16) is a 22-mer having 100% complementarity to a region containing the AUG start codon on the rat CYP2B1 mRNA (SEQ ID NO: 39, shown below Table). The oligo 2B1-NRM (SEQ ID NO: 17) has 100% complementarity to the CYP2B1 mRNA starting at base 855. The oligo 2B1-BPB (SEQ ID NO: 36) has the sequence of 2B1-NRM with a two base deletion (indicated in bold in the 2B1-NRM sequence). Each of the oligos 2B1-3MM (SEQ ID NO: 37) and 2B1-CMM (SEQ ID NO: 38) has 2 bases reversed (indicated in bold) compared to the BPB sequence. […] The table gives the melting temperature (Tm), molecular weight, and % homology to CYP2B1 mRNA of each sequence.

rat CYP2B1 = test: Hexobarbital sleep time in rats; type: in vivo
Protocol: Male Sprague-Dawley rats (Sasco, Omaha) weighing between 210 to 290 grams were used for all studies. They were housed in animal quarters at the University of Nebraska Medical Center AAALAC-approved Animal Resource Facility. The animals were exposed to 12 hour light/dark cycle and fed Purina rat chow and tap water ad libitum.
(§1) Rats were injected intraperitoneally (i.p.) with the indicated ODNs (see Table 3) once per day for 2 days, in an amount of lmg/kg body weight per injection. Control rats were injected with saline only. Rats in the “PB” groups were injected i.p. with phenobarbital (Mallinckrodt, St. Louis) at 80 mg/kg body weight per injection, once per day for 2 days. In the groups in which PB was co-administered with ODN, injections were administered simultaneously. Total volume of injections for all groups was […]. Animals in the “2B1-NRM+PB+PRETREATMENT” group also received a dose of 1 mg/kg of 2B1-NRM oligomer (SEQ ID NO: 17) 24 hours prior to the first administration of 2B1-NRM plus PB.
Forty-eight hours following the first (non-pretreatment) injection of ODN and/or PB, the rats were injected i.p. with 100 mg/kg body weight hexobarbital (Sigma, St. Louis), in a total volume of 1 ml/kg body weight, prepared fresh daily. Sleep time, defined as the time period from when the rat is placed on its back to when it regains its righting reflex, was measured. Sleep times are given in Table 5 as the mean of each animal in the group ±standard deviation.

CYP2B1 = test: PROD assay of liver microsomes (CYP2B1 enzyme activity); type: in vivo, rat; conditions: ODN alone
Protocol: Control rats were injected with saline only.
CYP2B1 enzyme activity was determined by pentoxyresorufin O-dealkylation (PROD) activity (Burke et al., 1985). For each microsomal sample, 1 mg protein in 1 ml 0.1 M potassium phosphate buffer, 1 ml 2 μM 5-pentoxyresorufin (Pierce, Rockford, Ill.), and 17 μl 60 mM NADPH were mixed and incubated for 10 minutes at 37° C. The mixture was then added to a 2 ml cuvette and read on a RF5000U spectrofluorophotometer (Shimadzu, Columbia, Md.), using an excitation wavelength of 530 nm and emission wavelength of 585 nm. Concentrations were calculated from a calibration curve of resorufin standards (Pierce, Rockford, Ill.). Results were recorded in nmol resorufin/mg protein/min.

CYP2B1 protein = test: ELISA for CYP2B1 protein in liver microsomes; conditions: for HRP activity (CYP2B1 ELISA): liver microsomes
Protocol: as §1
Microsomes were prepared, as described by Franklin and Estabrook (Arch. Biochem. Biophys. 143:318-29, 1971), for determination of enzyme level and activity. The rats were sacrificed using ethyl ether, and livers were perfused with 12 ml of 4% saline via the portal vein and then removed from the animal. The livers were minced, homogenized in 0.25 M sucrose (Sigma) and centrifuged at 8000×G for 20 minutes at 4° C. in a Sorvall RC2-B centrifuge (Dupont). The supernatant was saved, resuspended in 0.25 M sucrose, and centrifuged at 100,000×G for 45 minutes at 4° C. in a Sorvall OTD55B ultracentrifuge (Dupont). The pellet was resuspended in 1.15% KCl (Sigma) and centrifuged at 100,000×G for 1 hour at 4° C. The final pellet was resuspended in an equal volume buffer (10 mM Tris-acetate, 1 mM EDTA, 20% glycerol; Sigma) and frozen at −80° C.
Direct measurement of CYP2B1 protein was performed by an ELISA assay, using an antibody directed to the CYP2B1 protein (Schuurs and Van Weeman, Clin Chim Acta 81(1):1-40, 1977). Fifty μg of microsomal proteins per well were plated in 100 μl 0.35% sodium bicarbonate buffer overnight on a 96 well nunc-immuno plate (InterMed, Skokie, Ill.). The microsomes were washed 3× with 1% bovine serum albumin in PBS (PBS/BSA) and incubated for 1 hr at 37° C. with 200 μl PBS/BSA. The PBS/BSA was removed, and 50 μl of CYP2B1 antibody (Oxygene, Dallas) was added and incubated for 1 hour at 37° C. The microsomes were washed 5× with saline/Tween 20™ (Sigma), and 50 μl horseradish peroxidase (HRP)-conjugated secondary antibody (Bio-Rad) was added. The microsomes were incubated for 1 hour at 37° C., then washed 5× with saline/Tween 20™ and twice with 85% saline. HRP substrate (Kirkegaard & Perry Labs, Gaithersburg, Md.) (100 μl) was added, and the absorbance at 405 nm was read continuously in a microplate reader (Molecular Devices) for 1 hour. Results were recorded as HRP activity in mOD/min.

CYP2E1 = test: Microsomal PNP (p-nitrophenol hydroxylase) activity; type: in vivo, rat; conditions: liver microsomes
Protocol: Microsomal PNP (p-nitrophenol hydroxylase) activity was used as a measure of induction of CYP2E1, as PB is known to induce many different CYPs, including CYP2E1. CYP2E1 activity was determined by PNP activity as described in Reinke and Moyer, Drug Metab. Dispos. 13:548-52, 1985; Koop, Mol. Phannacol. 29:399404, 1986). Activity was recorded as optical density (OD) per milligram of protein per minute.

[1] = treatment alone (ODN 1 mg/kg or PB 80 mg/kg i.p. once per day for 2 days), hexobarbital 100 mg/kg i.p. at 48 h
[2] = ODN + PB 80 mg/kg injected simultaneously, 2 days, hexobarbital 100 mg/kg i.p.

Compound | Tm (CYP2B1 mRNA) [°C] | Effect on hexobarbital sleep time (in words) (rat CYP2B1; ODN alone, versus control) | Sleep time, Percent of Control (rat CYP2B1; treatment alone) | Sleep Time (min ± sd) (rat CYP2B1; [1]) | PROD activity versus control (in words) (CYP2B1) | HRP activity (CYP2B1 ELISA) (CYP2B1 protein; treatment alone) [mOD/min] | HRP activity versus control (in words) (CYP2B1 protein; treatment alone) | PNP activity versus control (in words) (CYP2E1; treatment alone) | Sleep time, Percent of Control (rat CYP2B1; ODN + PB) | Sleep Time (min ± sd) (rat CYP2B1; [2]) | Effect on hexobarbital sleep time (in words) (rat CYP2B1; ODN + PB, versus PB group) | HRP activity versus PB-alone group (in words) (CYP2B1 protein; ODN + PB) | HRP activity (CYP2B1 ELISA) (CYP2B1 protein; ODN + PB) [mOD/min] | PNP activity versus control (in words) (CYP2E1; ODN + PB) | also measured
2B1-3MM (antisense AAAGAAGAGAGAGCAGGGGA; chemistry not given here) | 49.8 | slightly lengthened sleep time over the control | 132.4% of Control | 31.0 ± 9.6 min | no change from control | 9.2 ± 5.0 | no change in HRP activity over control microsomes | no significant differences in PNP activities from control values | – | – | – | – | – | – | –
2B1-ATG (antisense GGAGCAAGATACTGGGCTCCAT; chemistry not given here) | 68.0 | did not significantly alter sleep time over control | 87.6% of Control | 20.5 ± 5.3 min | no change from control | 13.2 ± 4.4 | no change in HRP activity over control microsomes | no significant differences in PNP activities from control values | 82.5% of Control | 19.3 ± 4.4^b min | sleep time increased significantly over that of the PB group | a significant decrease in HRP activity over the PB-alone group | 12.9 ± 5.0 | significant increases in PNP activities over that of control | –
2B1-CMM (antisense AAAGAAGAGAAGGCAGGGAG; chemistry not given here) | 49.5 | did not significantly alter HB sleep time from the control | 98.2% of Control | 23.0 ± 5.3 min | no change from control | 10.1 ± 3.3 | no change in HRP activity over control microsomes | no significant differences in PNP activities from control values | – | – | – | – | – | – | –
2B1-NRM (antisense AAAGAAGAGAGAGAGCAGGGAG; chemistry not given here) | 50.6 | no effect on sleep time compared to control | 98.2% of Control | 23.0 ± 3.2 min | no change from control | 13.8 ± 5.6 | no change in HRP activity over control microsomes | no significant differences in PNP activities from control values | 57.7% of Control | 13.5 ± 0.9 min | no observable antisense effect | a decrease in HRP activity over that of the PB-alone treatment group | 17.9 ± 4.6 | significant increases in PNP activities over that of control | Effect on hexobarbital sleep time (in words) (rat CYP2B1; ODN pretreatment + PB): essentially the same as without pretreatment; Sleep time, Percent of Control (rat CYP2B1; ODN pretreatment + PB): 56.8% of Control; Sleep Time (min ± sd) (rat CYP2B1; ODN pretreatment one day before ODN + PB, 2 days, hexobarbital 100 mg/kg i.p.): 13.3 ± 3.0 min; HRP activity versus PB-alone group (in words) (CYP2B1 protein; ODN + PB + pretreatment): a decrease in HRP activity over that of the PB-alone treatment group; HRP activity (CYP2B1 ELISA) (CYP2B1 protein; ODN + PB/Pretreatment): 18.7 ± 0.3 mOD/min; PNP activity versus control (in words) (CYP2E1; ODN + PB + pretreatment): significant increases in PNP activities over that of control
CCC1(c2ccccc2)C(=O)NC(=O)NC1=O [Phenobarbital (PB), phenobarbital, reference compound] | – | – | 48.7% of Control | 11.4 ± 4.5^a min | – | 22.5 ± 4.2 | significantly greater than the activity of microsomes from control rats | significant increases in PNP activities over that of control | – | – | – | – | – | – | Sleep Time (min ± sd) (rat CYP2B1; treatment alone (ODN 1 mg/kg or PB 80 mg/kg i.p. once per day for 2 days), hexobarbital 100 mg/kg i.p. at 48 h, listed as PB): about 11.4 min

From patent publication US6673778B1, “Enzyme inhibitors for metabolic redirection” (The Board of Regents of the University of Nebraska, priority 1996, dated 2004)
